Results from paper PMC5218480 (PLoS ONE, 2017).

System: MV-4-11 cells
Assay: Gene expression microarray analysis (Affymetrix PrimeView) and GSEA
Format: cell-based, human
Set-up: RFU PODN (11730768_x_at) / Fold change /veh PODN (11730768_x_at) / RFU LINC00158 (11744669_a_at) / Fold change /veh LINC00158 (11744669_a_at) / RFU DUSP10 (11751237_a_at) / Fold change /veh DUSP10 (11751237_a_at) / RFU ID3 (11757404_x_at) / Fold change /veh ID3 (11757404_x_at) / RFU PLEKHG5 (11737974_s_at) / Fold change /veh PLEKHG5 (11737974_s_at) / RFU LRRC4B (11730491_at) / Fold change /veh LRRC4B (11730491_at) / RFU GIMAP4 (11747438_a_at) / Fold change /veh GIMAP4 (11747438_a_at) / RFU KRT8 (11758183_x_at) / Fold change /veh KRT8 (11758183_x_at) / RFU CNN1 (11734310_a_at) / Fold change /veh CNN1 (11734310_a_at) / RFU VPS37D (11726825_at) / Fold change /veh VPS37D (11726825_at) / RFU C10orf10 (11716522_x_at) / Fold change /veh C10orf10 (11716522_x_at) / RFU KIR2DL2 /// KIR2DL4 /// KIR2DL5A /// KIR2DL5B /// KIR2DS1 /// KIR2DS2 /// KIR2DS3 /// KIR2DS4 /// KIR3DL3 /// KIR3DL3 /// KIR3DS1 (11738374_at) / Fold change /veh KIR2DL2 /// KIR2DL4 /// KIR2DL5A /// KIR2DL5B /// KIR2DS1 /// KIR2DS2 /// KIR2DS3 /// KIR2DS4 /// KIR3DL3 /// KIR3DL3 /// KIR3DS1 (11738374_at) / RFU C1QL1 (11718748_at) / Fold change /veh C1QL1 (11718748_at) / RFU TMPRSS4 (11747572_a_at) / Fold change /veh TMPRSS4 (11747572_a_at) / RFU HAMP (11756126_x_at) / Fold change /veh HAMP (11756126_x_at) / RFU RNFT2 (11725882_a_at) / Fold change /veh RNFT2 (11725882_a_at) / RFU NR4A2 (11747474_a_at) / Fold change /veh NR4A2 (11747474_a_at) / RFU ABCC12 (11746883_a_at) / Fold change /veh ABCC12 (11746883_a_at) / RFU TMEM136 (11760407_x_at) / Fold change /veh TMEM136 (11760407_x_at) / RFU CLDN22 /// WWC2 (11732394_at) / Fold change /veh CLDN22 /// WWC2 (11732394_at) / RFU HLA-DPB1 (11760878_x_at) / Fold change /veh HLA-DPB1 (11760878_x_at) / RFU SPINT1 (11716480_a_at) / Fold change /veh SPINT1 (11716480_a_at) / RFU GAP43 (11754022_s_at) / Fold change /veh GAP43 (11754022_s_at) / RFU A4GNT (11735810_at) / Fold change /veh A4GNT (11735810_at) / RFU PRB3 (11715151_x_at) / Fold change /veh PRB3 (11715151_x_at) / RFU TUBB4B (11761932_at) / Fold change /veh TUBB4B (11761932_at) / RFU CAPN14 (11732068_a_at) / Fold change /veh CAPN14 (11732068_a_at) / RFU TMCC2 (11721928_a_at) / Fold change /veh TMCC2 (11721928_a_at) / RFU IRGQ (11745062_a_at) / Fold change /veh IRGQ (11745062_a_at) / RFU FAM174B (11720279_a_at) / Fold change /veh FAM174B (11720279_a_at) / RFU TMPRSS4 (11748680_a_at) / Fold change /veh TMPRSS4 (11748680_a_at) / RFU FAM212B (11763350_a_at) / Fold change /veh FAM212B (11763350_a_at) / RFU PLEKHG5 (11743358_a_at) / Fold change /veh PLEKHG5 (11743358_a_at) / RFU ZSCAN30 (11745921_a_at) / Fold change /veh ZSCAN30 (11745921_a_at) / RFU CMKLR1 (11741424_a_at) / Fold change /veh CMKLR1 (11741424_a_at) / RFU LOC101060620 /// MAPK8IP1 (11723275_at) / Fold change /veh LOC101060620 /// MAPK8IP1 (11723275_at) / RFU SPTSSB (11747773_x_at) / Fold change /veh SPTSSB (11747773_x_at) / RFU PRSS12 (11739890_at) / Fold change /veh PRSS12 (11739890_at) / RFU BIN1 (11741810_x_at) / Fold change /veh BIN1 (11741810_x_at) / RFU WNT11 (11732464_a_at) / Fold change /veh WNT11 (11732464_a_at) / RFU C10orf10 (11716521_a_at) / Fold change /veh C10orf10 (11716521_a_at) / RFU C5orf56 (11738089_at) / Fold change /veh C5orf56 (11738089_at) / RFU CYB561 (11721691_x_at) / Fold change /veh CYB561 (11721691_x_at) / RFU ANKRD19P (11752326_a_at) / Fold change /veh ANKRD19P (11752326_a_at) / RFU OR2T12 /// OR2T33 /// OR2T8 (11738714_s_at) / Fold change /veh OR2T12 /// OR2T33 /// OR2T8 (11738714_s_at) / RFU VCAN (11748164_a_at) / Fold change /veh VCAN (11748164_a_at) / RFU JSRP1 (11732532_at) / Fold change /veh JSRP1 (11732532_at) / RFU KRTAP10-11 (11738290_x_at) / Fold change /veh KRTAP10-11 (11738290_x_at) / RFU MYO3A (11730013_a_at) / Fold change /veh MYO3A (11730013_a_at) / RFU EBF3 (11725865_a_at) / Fold change /veh EBF3 (11725865_a_at) / RFU CAMK2N1 (11719241_x_at) / Fold change /veh CAMK2N1 (11719241_x_at) / RFU C5orf56 (11738088_a_at) / Fold change /veh C5orf56 (11738088_a_at) / RFU OLFML3 (11715873_a_at) / Fold change /veh OLFML3 (11715873_a_at) / RFU LOC100653217 /// NTM (11731650_a_at) / Fold change /veh LOC100653217 /// NTM (11731650_a_at) / RFU MAPK11 (11762145_a_at) / Fold change /veh MAPK11 (11762145_a_at) / RFU FIZ1 (11724087_x_at) / Fold change /veh FIZ1 (11724087_x_at) / RFU OASL (11726364_x_at) / Fold change /veh OASL (11726364_x_at) / RFU SOX15 (11748057_x_at) / Fold change /veh SOX15 (11748057_x_at) / RFU CD79A (11719716_a_at) / Fold change /veh CD79A (11719716_a_at) / RFU HIST1H1D (11736915_at) / Fold change /veh HIST1H1D (11736915_at) / RFU CASKIN2 (11723855_a_at) / Fold change /veh CASKIN2 (11723855_a_at) / RFU LOC730098 (11760151_x_at) / Fold change /veh LOC730098 (11760151_x_at) / RFU OR4N2 (11742367_at) / Fold change /veh OR4N2 (11742367_at) / RFU PRRT2 (11749266_a_at) / Fold change /veh PRRT2 (11749266_a_at) / RFU SNX32 (11753110_a_at) / Fold change /veh SNX32 (11753110_a_at) / RFU CDHR5 (11726645_a_at) / Fold change /veh CDHR5 (11726645_a_at) / RFU RCAN1 (11760418_a_at) / Fold change /veh RCAN1 (11760418_a_at) / RFU FAM167A (11723789_a_at) / Fold change /veh FAM167A (11723789_a_at) / RFU FAM26E (11764081_at) / Fold change /veh FAM26E (11764081_at) / RFU ISYNA1 (11749810_s_at) / Fold change /veh ISYNA1 (11749810_s_at) / RFU ACY1 (11761880_at) / Fold change /veh ACY1 (11761880_at) / RFU 11764098_at / Fold change /veh 11764098_at / RFU SAMD14 (11745864_x_at) / Fold change /veh SAMD14 (11745864_x_at) / RFU NPB (11741838_a_at) / Fold change /veh NPB (11741838_a_at) / RFU TMPRSS6 (11731388_a_at) / Fold change /veh TMPRSS6 (11731388_a_at) / RFU KRTAP10-2 (11738614_at) / Fold change /veh KRTAP10-2 (11738614_at) / RFU ARHGAP8 /// PRR5-ARHGAP8 (11727945_x_at) / Fold change /veh ARHGAP8 /// PRR5-ARHGAP8 (11727945_x_at) / RFU KRTAP5-7 /// NADSYN1 (11734609_at) / Fold change /veh KRTAP5-7 /// NADSYN1 (11734609_at) / RFU RASL12 (11751679_a_at) / Fold change /veh RASL12 (11751679_a_at) / RFU CDKN2B (11736163_a_at) / Fold change /veh CDKN2B (11736163_a_at) / RFU PRF1 (11729649_at) / Fold change /veh PRF1 (11729649_at) / RFU, ZNF638 /// ZNF638-IT1 / Fold change vs veh, ZNF638 /// ZNF638-IT1 / RFU, PANK3 / Fold change vs veh, PANK3 / RFU, SH3YL1 / Fold change vs veh, SH3YL1 / RFU, ZEB2 / Fold change vs veh, ZEB2 / RFU, NRIP1 / Fold change vs veh, NRIP1 / RFU, PTTG1IP / Fold change vs veh, PTTG1IP / RFU, CAPN2 / Fold change vs veh, CAPN2 / RFU, MED14 / Fold change vs veh, MED14 / RFU, SNORA58 / Fold change vs veh, SNORA58 / RFU, C1orf63 / Fold change vs veh, C1orf63 / RFU, LRRFIP1 / Fold change vs veh, LRRFIP1 / RFU, NDUFAF7 / Fold change vs veh, NDUFAF7 / RFU, SLC12A2 / Fold change vs veh, SLC12A2 / RFU, IBTK / Fold change vs veh, IBTK / RFU, ESF1 / Fold change vs veh, ESF1 / Fold change vs veh, TMEM50B / RFU, TAOK1 / Fold change vs veh, TAOK1 / RFU, ACBD3 / Fold change vs veh, ACBD3 / RFU, TMA16 / Fold change vs veh, TMA16 / RFU, RWDD3 / Fold change vs veh, RWDD3 / RFU, BCAT1 / Fold change vs veh, BCAT1 / RFU, EDEM3 / Fold change vs veh, EDEM3 / RFU, TMEM33 / Fold change vs veh, TMEM33 / RFU, WDR75 / Fold change vs veh, WDR75 / RFU, AHCTF1 / Fold change vs veh, AHCTF1 / RFU, TFRC / Fold change vs veh, TFRC / RFU, ZDHHC17 / Fold change vs veh, ZDHHC17 / RFU, NOM1 / Fold change vs veh, NOM1 / RFU, ARL8B / Fold change vs veh, ARL8B / RFU, ZBTB11 / Fold change vs veh, ZBTB11 / RFU, TAMM41 / Fold change vs veh, TAMM41 / RFU, KIAA1704 /// LOC100996395 / Fold change vs veh, KIAA1704 /// LOC100996395 / RFU, ING1 / Fold change vs veh, ING1 / RFU, TRMT61B / Fold change vs veh, TRMT61B / RFU, FUBP3 / Fold change vs veh, FUBP3 / RFU, TP53 / Fold change vs veh, TP53 / RFU, TNKS2 / Fold change vs veh, TNKS2 / RFU, ZFP14 / Fold change vs veh, ZFP14 / RFU, ACTR2 / Fold change vs veh, ACTR2 / RFU, PPP3R1 / Fold change vs veh, PPP3R1 / RFU, PIK3R1 / Fold change vs veh, PIK3R1 / RFU, HNRNPA1 / Fold change vs veh, HNRNPA1 / RFU, RNF170 / Fold change vs veh, RNF170 / RFU, ZNF28 / Fold change vs veh, ZNF28 / RFU, RNGTT / Fold change vs veh, RNGTT / RFU, OGT / Fold change vs veh, OGT / RFU, BRD1 / Fold change vs veh, BRD1 / RFU, MARS / Fold change vs veh, MARS / RFU, ZNF655 / Fold change vs veh, ZNF655 / RFU, FAHD1 / Fold change vs veh, FAHD1 / RFU, BDP1 / Fold change vs veh, BDP1 / RFU, LRRCC1 / Fold change vs veh, LRRCC1 / RFU, ARID1A / Fold change vs veh, ARID1A / RFU, ZNF146 / Fold change vs veh, ZNF146 / RFU, ZNF330 / Fold change vs veh, ZNF330 / RFU, GPN3 / Fold change vs veh, GPN3 / RFU, C9orf123 / Fold change vs veh, C9orf123 / RFU, N4BP2L2 / Fold change vs veh, N4BP2L2 / RFU, ARFIP1 / Fold change vs veh, ARFIP1 / RFU, FAM179B / Fold change vs veh, FAM179B / RFU, BCL10 / Fold change vs veh, BCL10 / RFU, UHRF1BP1L / Fold change vs veh, UHRF1BP1L / RFU, BET1 / Fold change vs veh, BET1 / RFU, CNOT2 / Fold change vs veh, CNOT2 / RFU, ZNF268 / Fold change vs veh, ZNF268 / Fold change vs veh, ZNF507 / RFU, DGCR2 / Fold change vs veh, DGCR2 / RFU, WDSUB1 / Fold change vs veh, WDSUB1 / Fold change vs veh, HSP90B1 /// MIR3652 / RFU, ADSS / Fold change vs veh, ADSS / RFU, GK / Fold change vs veh, GK / RFU, ZNF148 / Fold change vs veh, ZNF148 / RFU, TAF9 / Fold change vs veh, TAF9 / RFU, SLC1A5 / Fold change vs veh, SLC1A5 / RFU, SLMO2 / Fold change vs veh, SLMO2 / RFU, ABCC4 / Fold change vs veh, ABCC4 / RFU, LOC101060439 /// RAP1B / Fold change vs veh, LOC101060439 /// RAP1B / RFU, RFX7 / Fold change vs veh, RFX7 / RFU, GTPBP10 / Fold change vs veh, GTPBP10 / RFU, CNEP1R1 / Fold change vs veh, CNEP1R1 / RFU, BIVM-ERCC5 /// ERCC5 / Fold change vs veh, BIVM-ERCC5 /// ERCC5 / RFU, ILF3 / Fold change vs veh, ILF3 / RFU 11762660_at / Fold change /veh 11762660_at / RFU VCAN (11757783_s_at) / Fold change /veh VCAN (11757783_s_at) / RFU DDX43 (11728927_at) / Fold change /veh DDX43 (11728927_at) / RFU KRT8 (11758188_x_at) / Fold change /veh KRT8 (11758188_x_at) / RFU NKD1 (11759106_at) / Fold change /veh NKD1 (11759106_at) / RFU SRD5A1 (11742802_a_at) / Fold change /veh SRD5A1 (11742802_a_at) / RFU TPSAB1 /// TPSB2 (11721975_s_at) / Fold change /veh TPSAB1 /// TPSB2 (11721975_s_at) / RFU GSTM3 (11746129_a_at) / Fold change /veh GSTM3 (11746129_a_at) / RFU IL23R (11737362_x_at) / Fold change /veh IL23R (11737362_x_at) / RFU TMEM51 (11727254_a_at) / Fold change /veh TMEM51 (11727254_a_at) / RFU PIWIL2 (11732686_x_at) / Fold change /veh PIWIL2 (11732686_x_at) / RFU ORM1 (11744905_x_at) / Fold change /veh ORM1 (11744905_x_at) / RFU CCDC152 (11743942_at) / Fold change /veh CCDC152 (11743942_at) / RFU ECM1 (11717891_a_at) / Fold change /veh ECM1 (11717891_a_at) / RFU IL23R (11748794_a_at) / Fold change /veh IL23R (11748794_a_at) / RFU TNFAIP8L3 (11732012_x_at) / Fold change /veh TNFAIP8L3 (11732012_x_at) / RFU MBOAT4 (11741988_at) / Fold change /veh MBOAT4 (11741988_at) / RFU 11764193_at / Fold change /veh 11764193_at / RFU TMEM53 (11763286_at) / Fold change /veh TMEM53 (11763286_at) / RFU MAGEB2 (11727129_at) / Fold change /veh MAGEB2 (11727129_at) / RFU TMEM200A (11744735_a_at) / Fold change /veh TMEM200A (11744735_a_at) / RFU CCDC152 (11751479_a_at) / Fold change /veh CCDC152 (11751479_a_at) / RFU FAM211A (11726209_a_at) / Fold change /veh FAM211A (11726209_a_at) / RFU RGS16 (11746705_a_at) / Fold change /veh RGS16 (11746705_a_at) / RFU VCAN (11755009_s_at) / Fold change /veh VCAN (11755009_s_at) / RFU RHOB (11743442_s_at) / Fold change /veh RHOB (11743442_s_at) / RFU RGS16 (11720943_a_at) / Fold change /veh RGS16 (11720943_a_at) / RFU RGS16 (11720944_at) / Fold change /veh RGS16 (11720944_at) / RFU, VPS4B / Fold change vs veh, VPS4B / RFU, CREB1 / Fold change vs veh, CREB1 / RFU, DNAJC13 / Fold change vs veh, DNAJC13 / RFU, GNAQ / Fold change vs veh, GNAQ / RFU, CDK5R1 / Fold change vs veh, CDK5R1 / RFU, ZRANB3 / Fold change vs veh, ZRANB3 / RFU, CUL4A / Fold change vs veh, CUL4A / RFU, CCNY / Fold change vs veh, CCNY / RFU, UFL1 / Fold change vs veh, UFL1 / RFU, COG3 / Fold change vs veh, COG3 / RFU, DIAPH2 / Fold change vs veh, DIAPH2 / RFU, SKA2 / Fold change vs veh, SKA2 / RFU, AFF3 / Fold change vs veh, AFF3 / RFU, LMF1 / Fold change vs veh, LMF1 / RFU, IPO11 / Fold change vs veh, IPO11 / RFU, DFFB / Fold change vs veh, DFFB / RFU, FOXP1 / Fold change vs veh, FOXP1 / RFU, CARD8 / Fold change vs veh, CARD8 / RFU, STRN3 / Fold change vs veh, STRN3 / RFU, ADK / Fold change vs veh, ADK / RFU, RASSF2 / Fold change vs veh, RASSF2 / RFU, WIPF1 / Fold change vs veh, WIPF1 / RFU, LARP1B / Fold change vs veh, LARP1B / RFU, RASA1 / Fold change vs veh, RASA1 / RFU, RB1 / Fold change vs veh, RB1 / RFU, PPFIA1 / Fold change vs veh, PPFIA1 / RFU, MAT2A / Fold change vs veh, MAT2A / RFU, CCT5 / Fold change vs veh, CCT5 / RFU, WDR92 / Fold change vs veh, WDR92 / RFU, CUX1 / Fold change vs veh, CUX1 / RFU, TTC7A / Fold change vs veh, TTC7A / RFU, TMEM135 / Fold change vs veh, TMEM135 / RFU, DEPTOR / Fold change vs veh, DEPTOR / RFU, CPM / Fold change vs veh, CPM / RFU, DNAJB6 / Fold change vs veh, DNAJB6 / RFU, CACNA2D3 / Fold change vs veh, CACNA2D3 / RFU, DTX4 / Fold change vs veh, DTX4 / RFU, TFCP2 / Fold change vs veh, TFCP2 / RFU, GMCL1 /// GMCL1P1 / Fold change vs veh, GMCL1 /// GMCL1P1 / RFU, AEBP2 / Fold change vs veh, AEBP2 / RFU, SNHG1 /// SNORD22 /// SNORD25 /// SNORD26 /// SNORD27 /// SNORD28 /// SNORD29 /// SNORD31 / Fold change vs veh, SNHG1 /// SNORD22 /// SNORD25 /// SNORD26 /// SNORD27 /// SNORD28 /// SNORD29 /// SNORD31 / Fold change (Aza/veh), C12orf56 (ProbeSet 11735607_a_at) / Fold change (ACY-1035/veh), C12orf56 (ProbeSet 11735607_a_at) / Fold change (Aza/veh), FGFR1OP (ProbeSet 11751329_s_at) / Fold change (ACY-1035/veh), FGFR1OP (ProbeSet 11751329_s_at) / Fold change (Aza/veh), VPS36 (ProbeSet 11739960_a_at) / Fold change (ACY-1035/veh), VPS36 (ProbeSet 11739960_a_at) / RFU SYPL1 (11715823_x_at) / Fold change /veh SYPL1 (11715823_x_at) / RFU IGFBP7 (11715501_s_at) / Fold change /veh IGFBP7 (11715501_s_at) / RFU REEP3 (11722064_at) / Fold change /veh REEP3 (11722064_at) / RFU IGLL1 (11728026_x_at) / Fold change /veh IGLL1 (11728026_x_at): dose or concentration left out as unconfirmed
Settings: ProbeSet 11749645_x_at; LIST B

## Nc1ncn([C@@H]2O[C@H](CO)[C@@H](O)[C@H]2O)c(=O)n1 [azacitidine]
  Fold change vs veh, ZNF268: 0.97
